# Measured values as given in ChEMBL document CHEMBL1201862, “PubChem BioAssay data set” (2004).
#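 Step 1: Grow cells in 96-well plates. Step 2: Expose to compound for 48 hours at 5 concentrations. Step 3: Interpolate endpoints linearly; if unreached, use highest concentration. GI50 marks 50% less growth.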 The source made the active and inactive calls. No stated cut-off is given here; in the data, active = GI50 up to about 1.1 µM and inactive = higher.
# Columns and labels:
# Experiment in all cases: inhibition of tumour cell growth, NCI panel, 48 h
# ACHN = test system: ACHN
# HOP-92 = test system: HOP-92
# A549 = test system: A549
# SK-OV-3 = test system: SK-OV-3
# UACC-62 = test system: UACC-62
# HOP-62 = test system: HOP-62
# SF-268 = test system: SF-268
# SK-MEL-28 = test system: SK-MEL-28
# NCI-H522 = test system: NCI-H522
# MDA-MB-231 = test system: MDA-MB-231
# CCRF-CEM = test system: CCRF-CEM
# NCI-H460 = test system: NCI-H460
# MCF7 = test system: MCF7
# KM12 = test system: KM12
# Malme-3M = test system: Malme-3M
# COLO 205 = test system: COLO 205
# A498 = test system: A498
# EKVX = test system: EKVX
# OVCAR-3 = test system: OVCAR-3
# OVCAR-8 = test system: OVCAR-8
# HT-29 = test system: HT-29
# SR = test system: SR
# SK-MEL-5 = test system: SK-MEL-5
# MDA-N = test system: MDA-N
# NCI-H23 = test system: NCI-H23
# T47D = test system: T47D
# HCC 2998 = test system: HCC 2998
# IGROV-1 = test system: IGROV-1
# OVCAR-4 = test system: OVCAR-4
# NCI-H226 = test system: NCI-H226
# SF-295 = test system: SF-295
# MDA-MB-435 = test system: MDA-MB-435
# UACC-257 = test system: UACC-257
# SW-620 = test system: SW-620
# MOLT-4 = test system: MOLT-4
# HCT-116 = test system: HCT-116
# U-251 = test system: U-251
# DU-145 = test system: DU-145
# HCT-15 = test system: HCT-15
# SN12C = test system: SN12C
# CAKI-1 = test system: CAKI-1
# RXF 393 = test system: RXF 393
# TK-10 = test system: TK-10
# M14 = test system: M14
# K562 = test system: K562
# Hs-578T = test system: Hs-578T
# SF-539 = test system: SF-539
# 786-0 = test system: 786-0
# UO-31 = test system: UO-31
# SNB-19 = test system: SNB-19
# PC-3 = test system: PC-3
# OVCAR-5 = test system: OVCAR-5
# SNB-75 = test system: SNB-75
# NCI/ADR-RES = test system: NCI/ADR-RES
# BT-549 = test system: BT-549
# RPMI-8226 = test system: RPMI-8226
# SK-MEL-2 = test system: SK-MEL-2
# HL-60 = test system: HL-60
smiles,measurement,setting,value
c1csc(-c2cc(-c3ccsc3)c(-c3ccsc3)s2)c1,GI50,ACHN,> 100 µM (inactive)
same,GI50,HOP-92,> 100 µM (inactive)
same,GI50,A549,> 100 µM (inactive)
same,GI50,SK-OV-3,> 100 µM (inactive)
same,GI50,UACC-62,> 100 µM (inactive)
same,GI50,HOP-62,> 100 µM (inactive)
same,GI50,SF-268,> 100 µM (inactive)
same,GI50,SK-MEL-28,> 100 µM (inactive)
same,GI50,NCI-H522,> 100 µM (inactive)
same,GI50,MDA-MB-231,> 100 µM (inactive)
same,GI50,CCRF-CEM,> 100 µM (inactive)
same,GI50,NCI-H460,> 100 µM (inactive)
same,GI50,MCF7,24.8 µM (inactive)
same,GI50,KM12,> 100 µM (inactive)
same,GI50,Malme-3M,> 100 µM (inactive)
same,GI50,COLO 205,89.7 µM (inactive)
same,GI50,A498,> 100 µM (inactive)
same,GI50,EKVX,8.15 µM (inactive)
same,GI50,OVCAR-3,> 100 µM (inactive)
same,GI50,OVCAR-8,> 100 µM (inactive)
same,GI50,HT-29,> 100 µM (inactive)
same,GI50,SR,> 100 µM (inactive)
same,GI50,SK-MEL-5,> 100 µM (inactive)
same,GI50,MDA-N,> 100 µM (inactive)
same,GI50,NCI-H23,> 100 µM (inactive)
same,GI50,T47D,3.49 µM (inactive)
same,GI50,HCC 2998,68.7 µM (inactive)
same,GI50,IGROV-1,> 100 µM (inactive)
same,GI50,OVCAR-4,> 100 µM (inactive)
same,GI50,NCI-H226,> 10 µM (inactive)
same,GI50,SF-295,> 100 µM (inactive)
same,GI50,MDA-MB-435,> 100 µM (inactive)
same,GI50,UACC-257,> 100 µM (inactive)
same,GI50,SW-620,> 100 µM (inactive)
same,GI50,MOLT-4,> 100 µM (inactive)
same,GI50,HCT-116,> 100 µM (inactive)
same,GI50,U-251,> 100 µM (inactive)
same,GI50,DU-145,> 100 µM (inactive)
same,GI50,HCT-15,24 µM
same,GI50,SN12C,> 100 µM (inactive)
same,GI50,CAKI-1,> 100 µM (inactive)
same,GI50,RXF 393,> 100 µM (inactive)
same,GI50,TK-10,> 100 µM (inactive)
same,GI50,M14,> 100 µM (inactive)
same,GI50,K562,> 100 µM (inactive)
same,GI50,Hs-578T,> 100 µM (inactive)
same,GI50,SF-539,> 100 µM (inactive)
same,GI50,786-0,> 100 µM (inactive)
same,GI50,UO-31,> 100 µM (inactive)
same,GI50,SNB-19,> 100 µM (inactive)
same,GI50,PC-3,> 100 µM (inactive)
same,GI50,OVCAR-5,> 100 µM (inactive)
same,GI50,SNB-75,> 100 µM (inactive)
same,GI50,NCI/ADR-RES,> 100 µM (inactive)
same,GI50,BT-549,> 100 µM (inactive)
CN1CC=C(c2c(N)nc(N)[nH]c2=O)CC1,GI50,RPMI-8226,> 100 µM (inactive)
same,GI50,ACHN,> 100 µM (inactive)
same,GI50,HOP-92,> 100 µM (inactive)
same,GI50,A549,> 100 µM (inactive)
same,GI50,SK-OV-3,> 100 µM (inactive)
same,GI50,UACC-62,> 100 µM (inactive)
same,GI50,HOP-62,> 100 µM (inactive)
same,GI50,SF-268,> 100 µM (inactive)
same,GI50,SK-MEL-28,> 100 µM (inactive)
same,GI50,NCI-H522,> 100 µM (inactive)
same,GI50,MDA-MB-231,> 100 µM (inactive)
same,GI50,CCRF-CEM,> 100 µM (inactive)
same,GI50,NCI-H460,> 100 µM (inactive)
same,GI50,MCF7,> 100 µM (inactive)
same,GI50,KM12,> 100 µM (inactive)
same,GI50,Malme-3M,80.2 µM (inactive)
same,GI50,COLO 205,> 100 µM (inactive)
same,GI50,A498,> 100 µM (inactive)
same,GI50,SK-MEL-2,> 100 µM (inactive)
same,GI50,EKVX,> 100 µM (inactive)
same,GI50,OVCAR-3,> 100 µM (inactive)
same,GI50,OVCAR-8,> 100 µM (inactive)
same,GI50,HT-29,> 100 µM (inactive)
same,GI50,SR,> 100 µM (inactive)
same,GI50,SK-MEL-5,> 100 µM (inactive)
same,GI50,MDA-N,> 100 µM (inactive)
same,GI50,NCI-H23,> 100 µM (inactive)
same,GI50,T47D,> 100 µM (inactive)
same,GI50,IGROV-1,> 100 µM (inactive)
same,GI50,OVCAR-4,> 100 µM (inactive)
same,GI50,NCI-H226,> 100 µM (inactive)
same,GI50,SF-295,> 100 µM (inactive)
same,GI50,MDA-MB-435,> 100 µM (inactive)
same,GI50,UACC-257,> 100 µM (inactive)
same,GI50,SW-620,> 100 µM (inactive)
same,GI50,MOLT-4,> 100 µM (inactive)
same,GI50,HCT-116,> 100 µM (inactive)
same,GI50,U-251,> 100 µM (inactive)
same,GI50,DU-145,> 100 µM (inactive)
same,GI50,HCT-15,> 100 µM
same,GI50,SN12C,> 100 µM (inactive)
same,GI50,CAKI-1,> 100 µM (inactive)
same,GI50,RXF 393,> 100 µM (inactive)
same,GI50,M14,> 100 µM (inactive)
same,GI50,K562,> 100 µM (inactive)
same,GI50,Hs-578T,> 100 µM (inactive)
same,GI50,SF-539,> 100 µM (inactive)
same,GI50,786-0,> 100 µM (inactive)
same,GI50,UO-31,> 100 µM (inactive)
same,GI50,SNB-19,> 100 µM (inactive)
same,GI50,PC-3,> 100 µM (inactive)
same,GI50,OVCAR-5,> 100 µM (inactive)
same,GI50,SNB-75,65.6 µM (inactive)
same,GI50,NCI/ADR-RES,> 100 µM (inactive)
same,GI50,BT-549,> 100 µM (inactive)
same,GI50,HL-60,> 100 µM (inactive)
